Measured values published in the supplement of paper PMC10307832.

Tests used:
Test in all cases: relative viability (nuclei count vs DMSO), 5 days (fraction); higher = more cells survive
[1] = system: NCI-H1755
Method in brief: (§1)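 Five library-drug doses in √10 steps were combined with a fixed anchor-drug dose, or a single drug was given alone, by pin tool to lung cancer cell lines in 1536-well plates the day after seeding. Nuclei were stained and counted after 5 days. Relative viability is the nuclei count in treated wells over that in vehicle wells, taken as the median of duplicate plates.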

[2] = system: A-427
Method in brief: as §1

[3] = system: LOU-NH91
Method in brief: as §1

[4] = system: NCI-H2170
Method in brief: as §1

[5] = system: NCI-H1975
Method in brief: as §1

[6] = system: ChaGo-K-1
Method in brief: as §1

[7] = system: EKVX
Method in brief: as §1

[8] = system: NCI-H441
Method in brief: as §1

[9] = system: NCI-H520
Method in brief: as §1

[10] = system: NCI-H1734
Method in brief: as §1

[11] = system: EMC-BAC-2
Method in brief: as §1

## CCN(CC)CCCCNc1ncc2cc(-c3cc(OC)cc(OC)c3)c(NC(=O)NC(C)(C)C)nc2n1 + O=C(c1cc(Cc2n[nH]c(=O)c3ccccc23)ccc1F)N1CCN(C(=O)C2CC2)CC1 [Olaparib] (partner 8 µM)
[1]; first compound 0.1 µM
  relative viability: 0.958
[1]; first compound 0.3162 µM
  relative viability: 1.01
[1]; first compound 1 µM
  relative viability: 0.934
[2]; first compound 0.01 µM
  relative viability: 0.781
[2]; first compound 0.03162 µM
  relative viability: 0.746
[2]; first compound 0.1 µM
  relative viability: 0.838
[2]; first compound 0.3162 µM
  relative viability: 0.816
[2]; first compound 1 µM
  relative viability: 0.685
[3]; first compound 0.01 µM
  relative viability: 0.895
[3]; first compound 0.03162 µM
  relative viability: 0.9
[3]; first compound 0.1 µM
  relative viability: 0.954
[3]; first compound 0.3162 µM
  relative viability: 0.952
[3]; first compound 1 µM
  relative viability: 0.884
[4]; first compound 0.01 µM
  relative viability: 0.583
[4]; first compound 0.03162 µM
  relative viability: 0.559
[4]; first compound 0.1 µM
  relative viability: 0.655
[4]; first compound 0.3162 µM
  relative viability: 0.676
[4]; first compound 1 µM
  relative viability: 0.732
[5]; first compound 0.01 µM
  relative viability: 0.85
[5]; first compound 0.03162 µM
  relative viability: 0.791
[5]; first compound 0.1 µM
  relative viability: 1.05
[5]; first compound 0.3162 µM
  relative viability: 0.903
[5]; first compound 1 µM
  relative viability: 0.708
[6]; first compound 0.01 µM
  relative viability: 0.444
[6]; first compound 0.03162 µM
  relative viability: 0.416
[6]; first compound 0.1 µM
  relative viability: 0.442
[6]; first compound 0.3162 µM
  relative viability: 0.46
[6]; first compound 1 µM
  relative viability: 0.388
[7]; first compound 0.03162 µM
  relative viability: 0.873
[7]; first compound 0.1 µM
  relative viability: 1.07
[7]; first compound 0.3162 µM
  relative viability: 1.05
[7]; first compound 1 µM
  relative viability: 0.868
[8]; first compound 0.01 µM
  relative viability: 0.601
[8]; first compound 0.03162 µM
  relative viability: 0.556
[8]; first compound 0.1 µM
  relative viability: 0.531
[8]; first compound 0.3162 µM
  relative viability: 0.715
[8]; first compound 1 µM
  relative viability: 0.688
[9]; first compound 0.01 µM
  relative viability: 0.367
[9]; first compound 0.03162 µM
  relative viability: 0.377
[9]; first compound 0.1 µM
  relative viability: 0.318
[9]; first compound 0.3162 µM
  relative viability: 0.272
[9]; first compound 1 µM
  relative viability: 0.261
[10]; first compound 0.01 µM
  relative viability: 0.595
[10]; first compound 0.03162 µM
  relative viability: 0.614
[10]; first compound 0.1 µM
  relative viability: 0.746
[10]; first compound 0.3162 µM
  relative viability: 0.638
[10]; first compound 1 µM
  relative viability: 0.569
[11]; first compound 0.03162 µM
  relative viability: 0.485
[11]; first compound 0.1 µM
  relative viability: 0.56
[11]; first compound 0.3162 µM
  relative viability: 0.507
[11]; first compound 1 µM
  relative viability: 0.525
